Measurements as given in PubChem BioAssay (NCI).
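Cells were grown in 96-well plates and exposed to each compound for 48 hours at five concentrations; endpoints were interpolated linearly between bracketing concentrations, or set to the highest concentration if not reached. TGI marks complete inhibition of growth.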

Key:
Test in all cases: NCI anticancer screen, dose series, 48 h
CCRF-CEM leukemia = tested on: CCRF-CEM leukemia
COLO 205 colon = tested on: COLO 205 colon
NCI-H226 lung = tested on: NCI-H226 lung
NCI-H460 lung = tested on: NCI-H460 lung
OVCAR-4 ovarian = tested on: OVCAR-4 ovarian
SF-295 CNS = tested on: SF-295 CNS
SF-539 CNS = tested on: SF-539 CNS
SK-MEL-5 melanoma = tested on: SK-MEL-5 melanoma
SNB-19 CNS = tested on: SNB-19 CNS
T-47D breast = tested on: T-47D breast

Structure (SMILES)	TGI (CCRF-CEM leukemia)	TGI (COLO 205 colon)	TGI (NCI-H226 lung)	TGI (NCI-H460 lung)	TGI (OVCAR-4 ovarian)	TGI (SF-295 CNS)	TGI (SF-539 CNS)	TGI (SK-MEL-5 melanoma)	TGI (SNB-19 CNS)	TGI (T-47D breast)
CCC(=O)Nc1ccc(NS(=O)(=O)c2ccc(Cl)cc2)cc1	> 100 µM	> 100 µM	> 100 µM	> 100 µM	> 100 µM	> 100 µM	> 100 µM	> 100 µM	> 100 µM	> 100 µM
N#Cc1ccc(-c2nc(C#N)c(N)o2)cc1	> 10 µM	> 10 µM	> 10 µM	> 10 µM	> 10 µM	> 10 µM	> 10 µM	> 10 µM	> 10 µM	> 10 µM
N#Cc1nc(CCCN2C(=O)c3ccccc3C2=O)oc1N	> 100 µM	> 100 µM	> 100 µM	> 100 µM	> 100 µM	> 100 µM	> 100 µM	> 100 µM	> 100 µM	> 100 µM
CC(=O)OCC(=O)O[C@@H]1[C@H]2[C@@H](OC(=O)c3ccccc3)[C@@H](C)C[C@]2(O)[C@H](OC(C)=O)[C@@]2(C)C[C@]1(OC(C)=O)C[C@H]1C(=O)C(C)(C)[C@@H](OC(C)=O)[C@@H]12	> 25 µM	> 25 µM	> 25 µM	> 25 µM	> 25 µM	> 25 µM	> 25 µM	> 25 µM	> 25 µM	> 25 µM
CCCCN1C(=O)CC2[C@@H]3CCc4cc(OC)ccc4C3CC[C@]2(C)C1=O (stereo not given in full)	> 10 µM	> 10 µM	> 10 µM	> 10 µM	> 10 µM	> 10 µM	> 10 µM	> 10 µM	> 10 µM	> 10 µM
COc1cc2c3c(cc(Cl)nc3c1OC)C(=O)C(=O)N2	8.21 µM	51 µM	41.5 µM	42.7 µM	3.05 µM	32.9 µM	36.4 µM	32.4 µM	42.6 µM	> 100 µM
COC(=O)C1=C(C)NC(C)=C(C(=O)OC)C1c1cccc(N=O)c1	> 100 µM	32.6 µM	37.8 µM	31 µM	26.2 µM	> 100 µM	33.5 µM	29.8 µM	> 100 µM	40.4 µM
COc1cc(OC)cc(Oc2nc3cc(F)c(F)cc3nc2-c2ccccc2)c1	> 100 µM	> 100 µM	> 100 µM	> 100 µM	> 100 µM	> 100 µM	> 100 µM	> 100 µM	> 100 µM	> 100 µM
Cc1ccc2c(c1C)CC1(Cc3c(C)ccc(C)c3C1=O)C2=O (stereo not given)	> 100 µM	> 100 µM	> 100 µM	> 100 µM	> 100 µM	> 100 µM	> 100 µM	> 100 µM	> 100 µM	> 100 µM
CN(C)CCNc1c([N+](=O)[O-])sc2ccc(Cl)cc12	> 100 µM	> 100 µM	66 µM	> 100 µM	> 100 µM	> 100 µM	46.9 µM	> 100 µM	> 100 µM	> 100 µM
Cc1cc(OCc2nnc3sc(NC(=O)c4ccccc4)nn23)ccc1Cl	> 100 µM	> 100 µM	> 100 µM	> 100 µM	> 100 µM	> 100 µM	> 100 µM	> 100 µM	> 100 µM	> 100 µM
O=c1ccn(-c2ccccn2)c(=O)n1-c1ccccn1	> 100 µM	> 100 µM	> 100 µM	> 100 µM	> 100 µM	> 100 µM	> 100 µM	> 100 µM	> 100 µM	> 100 µM
C[n+]1c(-c2ccc(NC(=O)c3ccc(C(=O)Nc4ccc(-c5cn6ccccc6[n+]5C)cc4)cc3)cc2)cn2ccccc21	> 100 µM	> 100 µM	> 100 µM	> 100 µM	> 100 µM	> 100 µM	> 100 µM	> 100 µM	> 100 µM	> 100 µM
C=C1CC(COc2ccc3c(C)c(C)c(=O)oc3c2C)(c2ccccc2)OC1=O (stereo not given)	1.55 µM	3.24 µM	6.73 µM	18 µM	4.82 µM	19.2 µM	4.75 µM	3.23 µM	27.1 µM	4.96 µM
O=C1CS/C(=N/N=C/c2cn(Cc3ccc(Cl)cc3Cl)c3ccccc23)N1	56.4 µM	> 100 µM	> 100 µM	> 100 µM	> 100 µM	> 100 µM	41 µM	> 100 µM	> 100 µM	> 100 µM
O=C(Sc1c(-c2ccccc2)c(=O)n(-c2ccccc2)c(=S)n1-c1ccccc1)c1ccco1	69.3 µM	> 100 µM	> 100 µM	> 100 µM	> 100 µM	> 100 µM	> 100 µM	> 100 µM	> 100 µM	> 100 µM
CCOc1ccc(NCC2CC/C(=C\C=C\c3ccccc3)C2=O)cc1 (stereo not given)	> 100 µM	31.7 µM	> 100 µM	> 80.8 µM	73.9 µM	79.5 µM	37.8 µM	30.7 µM	60.9 µM	45.3 µM

Structure (SMILES)	TGI (CCRF-CEM leukemia)	TGI (COLO 205 colon)	TGI (NCI-H226 lung)	TGI (NCI-H460 lung)	TGI (OVCAR-4 ovarian)	TGI (SF-295 CNS)	TGI (SF-539 CNS)	TGI (SK-MEL-5 melanoma)	TGI (SNB-19 CNS)	TGI (T-47D breast)
Cc1nc(SCC(N)=O)c2sc(=S)n(-c3ccccc3)c2n1	> 10 µM	> 10 µM	> 10 µM	> 10 µM	> 10 µM	> 10 µM	> 10 µM	> 10 µM	> 10 µM	> 10 µM
NC(N)=NS(=O)(=O)c1ccc(NC(=O)c2cccc3c(NNc4ccc(S(N)(=O)=O)cc4)c4ccccc4nc23)cc1	> 100 µM	> 100 µM	> 100 µM	> 100 µM	> 100 µM	> 100 µM	> 100 µM	> 100 µM	> 100 µM	79.1 µM
NCCCCNCCCNC(=O)CNC(=O)CC(O)C(N)CCCC(NC(=O)C(CN)NC(=O)C(O)CNC(=O)CC(N)c1ccc(O)cc1)C(=O)O (stereo not given)	> 10 µM	> 10 µM	> 10 µM	> 10 µM	> 10 µM	> 10 µM	> 10 µM	> 10 µM	> 10 µM	> 10 µM
S=c1[nH]nc(Cn2c3ccc(Br)cc3c3nc4ccccc4nc32)n1C1CCCCC1	84.1 µM	> 59.8 µM	> 76.6 µM	> 100 µM	> 100 µM	49.5 µM	42.1 µM	49.1 µM	> 96.7 µM	> 100 µM
CCN(CC)c1ccc(NC(=S)NN(C)C)cc1	> 10 µM	> 10 µM	> 10 µM	> 10 µM	> 10 µM	> 10 µM	> 10 µM	> 10 µM	> 10 µM	> 10 µM
C[N+]1(CCN=C=NC2CCCCC2)CCOCC1	> 100 µM	> 100 µM	> 100 µM	> 100 µM	> 100 µM	> 100 µM	> 100 µM	> 100 µM	> 100 µM	> 100 µM
O=[N+]([O-])/C(Cl)=C(/C(Cl)=C(Cl)Cl)N1CCCCC1	19.7 µM	22.7 µM	34.1 µM	43 µM	27.5 µM	54.3 µM	31.9 µM	20.2 µM	54.1 µM	34 µM
Cn1nc2c(c1N)Cc1c(nn(C)c1N)-c1ccccc1-2	> 100 µM	> 100 µM	> 100 µM	> 100 µM	> 100 µM	> 100 µM	> 100 µM	> 100 µM	> 100 µM	> 100 µM
Clc1cc(C(c2cc(Cl)sc2Cl)c2cc(Cl)sc2Cl)c(Cl)s1	> 100 µM	> 100 µM	> 100 µM	> 100 µM	> 100 µM	> 100 µM	> 100 µM	> 100 µM	> 100 µM	> 100 µM
CC1(C)OC[C@@H](C[C@H](O)COCc2ccccc2)O1	> 100 µM	> 100 µM	> 100 µM	> 100 µM	> 100 µM	> 100 µM	> 100 µM	> 100 µM	> 100 µM	> 100 µM
COc1cccc(N2C(=O)CS(=O)(=O)C2c2cccc(Oc3ccccc3)c2)c1 (stereo not given)	> 100 µM	42.4 µM	76.7 µM	31.1 µM	> 100 µM	> 100 µM	38.4 µM	22.6 µM	> 100 µM	81.1 µM
Nc1nncc2[nH]cnc12	20.7 µM	> 60.9 µM	> 100 µM	> 100 µM	> 100 µM	> 100 µM	> 100 µM	> 100 µM	> 100 µM	> 100 µM
CC(=O)C1(O)CCC2(O)C3(O)CC=C4CC(O)CCC4(C)C3CC(OC(=O)c3ccc(O)cc3)C12C (stereo not given)	> 100 µM	> 100 µM	> 100 µM	> 100 µM	> 100 µM	> 100 µM	> 100 µM	> 100 µM	> 100 µM	> 100 µM
O=C1c2cccnc2S(=O)(=O)N1c1ccc([N+](=O)[O-])cc1	> 100 µM	> 100 µM	> 100 µM	> 100 µM	> 100 µM	> 100 µM	> 100 µM	> 100 µM	> 100 µM	> 100 µM
Cc1ccc(S(=O)(=O)c2c(O)c3ccc(O)c(C)c3oc2=O)cc1	> 100 µM	> 100 µM	> 100 µM	> 100 µM	> 100 µM	> 100 µM	> 100 µM	> 100 µM	> 100 µM	> 100 µM
CC1(C)N=C(N)N=C(N)N1c1cccc(OCc2cccc(N)c2)c1	> 100 µM	> 100 µM	> 100 µM	> 100 µM	> 100 µM	> 100 µM	> 80.4 µM	> 100 µM	> 100 µM	> 100 µM
CCCCCCCCCCCCOCCOCCOCCOCCOCCOCC(=O)NC(Cc1ccccc1)C(=O)Oc1ccc([N+](=O)[O-])cc1 (stereo not given)	> 100 µM	35.9 µM	> 100 µM	> 100 µM	> 100 µM	> 100 µM	> 100 µM	> 100 µM	> 100 µM	> 100 µM
